Molecular target: JAK1 (Homo sapiens (Human), UniProt P23458)
Experiment: not given
Conditions: 1 mM ATP; cited from earlier work

Chain of JAK1 (P23458 whole entry, species assumed): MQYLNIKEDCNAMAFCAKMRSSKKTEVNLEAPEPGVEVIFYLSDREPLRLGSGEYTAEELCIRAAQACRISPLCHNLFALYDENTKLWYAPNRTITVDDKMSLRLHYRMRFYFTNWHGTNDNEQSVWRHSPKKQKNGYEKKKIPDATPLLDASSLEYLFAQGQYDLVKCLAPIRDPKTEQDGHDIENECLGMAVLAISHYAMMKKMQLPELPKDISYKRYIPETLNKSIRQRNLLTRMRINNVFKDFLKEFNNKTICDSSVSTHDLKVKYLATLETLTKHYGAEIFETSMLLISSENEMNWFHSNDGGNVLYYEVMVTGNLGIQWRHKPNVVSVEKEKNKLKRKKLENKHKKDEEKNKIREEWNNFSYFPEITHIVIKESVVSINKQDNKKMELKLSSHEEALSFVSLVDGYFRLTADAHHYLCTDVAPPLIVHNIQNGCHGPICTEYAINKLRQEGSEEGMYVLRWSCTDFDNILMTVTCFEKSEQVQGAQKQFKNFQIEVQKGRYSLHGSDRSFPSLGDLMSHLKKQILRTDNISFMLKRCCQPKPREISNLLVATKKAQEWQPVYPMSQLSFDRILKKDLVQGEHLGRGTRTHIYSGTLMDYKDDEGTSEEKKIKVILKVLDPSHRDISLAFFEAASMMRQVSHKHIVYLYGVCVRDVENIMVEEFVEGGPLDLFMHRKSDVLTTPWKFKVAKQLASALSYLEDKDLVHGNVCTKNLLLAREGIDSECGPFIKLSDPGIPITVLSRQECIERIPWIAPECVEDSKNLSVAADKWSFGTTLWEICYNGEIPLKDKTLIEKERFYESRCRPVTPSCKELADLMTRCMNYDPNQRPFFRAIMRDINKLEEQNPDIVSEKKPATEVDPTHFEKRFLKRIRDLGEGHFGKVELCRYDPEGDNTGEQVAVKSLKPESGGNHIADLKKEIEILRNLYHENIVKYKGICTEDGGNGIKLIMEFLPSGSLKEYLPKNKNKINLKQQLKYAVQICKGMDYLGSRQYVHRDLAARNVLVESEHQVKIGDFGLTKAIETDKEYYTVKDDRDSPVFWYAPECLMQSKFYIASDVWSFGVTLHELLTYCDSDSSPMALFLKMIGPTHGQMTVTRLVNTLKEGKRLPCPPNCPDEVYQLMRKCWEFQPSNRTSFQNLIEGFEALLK

| Compound | IC50 |
| --- | --- |
| CCCCNc1ncc2c(-c3ccc(F)cc3)nc(C[C@H]3CC[C@H](N)CC3)n2n1 [Example 13, trans-7-[(4-Aminocyclohexyl)methyl]-N-butyl-5-(4-fluorophenyl)imidazo[5,1-f][1,2,4]triazin-2-amine] | < 10 nM |
| N[C@H]1CC[C@H](Cc2nc(-c3ccc(F)cc3)c3cnc(NCCCc4ccccc4)nn23)CC1 [Example 14, trans-7-((4-Aminocyclohexyl)methyl)-5-(4-fluorophenyl)-N-(3-phenylpropyl)imidazo[5,1-f][1,2,4]triazin-2-amine] | < 10 nM |
| CCCCNc1ncc2c(-c3ccc(F)cc3)nc(C3CCC(N)CC3)n2n1 (centres unmarked) [Example 15, 7-(4-Aminocyclohexyl)-N-butyl-5-(4-fluorophenyl)imidazo[5,1-f][1,2,4]triazin-2-amine] | < 10 nM |

Molecular target: JAK2 (Homo sapiens (Human), UniProt O60674)
Sequence (O60674 whole entry, species assumed): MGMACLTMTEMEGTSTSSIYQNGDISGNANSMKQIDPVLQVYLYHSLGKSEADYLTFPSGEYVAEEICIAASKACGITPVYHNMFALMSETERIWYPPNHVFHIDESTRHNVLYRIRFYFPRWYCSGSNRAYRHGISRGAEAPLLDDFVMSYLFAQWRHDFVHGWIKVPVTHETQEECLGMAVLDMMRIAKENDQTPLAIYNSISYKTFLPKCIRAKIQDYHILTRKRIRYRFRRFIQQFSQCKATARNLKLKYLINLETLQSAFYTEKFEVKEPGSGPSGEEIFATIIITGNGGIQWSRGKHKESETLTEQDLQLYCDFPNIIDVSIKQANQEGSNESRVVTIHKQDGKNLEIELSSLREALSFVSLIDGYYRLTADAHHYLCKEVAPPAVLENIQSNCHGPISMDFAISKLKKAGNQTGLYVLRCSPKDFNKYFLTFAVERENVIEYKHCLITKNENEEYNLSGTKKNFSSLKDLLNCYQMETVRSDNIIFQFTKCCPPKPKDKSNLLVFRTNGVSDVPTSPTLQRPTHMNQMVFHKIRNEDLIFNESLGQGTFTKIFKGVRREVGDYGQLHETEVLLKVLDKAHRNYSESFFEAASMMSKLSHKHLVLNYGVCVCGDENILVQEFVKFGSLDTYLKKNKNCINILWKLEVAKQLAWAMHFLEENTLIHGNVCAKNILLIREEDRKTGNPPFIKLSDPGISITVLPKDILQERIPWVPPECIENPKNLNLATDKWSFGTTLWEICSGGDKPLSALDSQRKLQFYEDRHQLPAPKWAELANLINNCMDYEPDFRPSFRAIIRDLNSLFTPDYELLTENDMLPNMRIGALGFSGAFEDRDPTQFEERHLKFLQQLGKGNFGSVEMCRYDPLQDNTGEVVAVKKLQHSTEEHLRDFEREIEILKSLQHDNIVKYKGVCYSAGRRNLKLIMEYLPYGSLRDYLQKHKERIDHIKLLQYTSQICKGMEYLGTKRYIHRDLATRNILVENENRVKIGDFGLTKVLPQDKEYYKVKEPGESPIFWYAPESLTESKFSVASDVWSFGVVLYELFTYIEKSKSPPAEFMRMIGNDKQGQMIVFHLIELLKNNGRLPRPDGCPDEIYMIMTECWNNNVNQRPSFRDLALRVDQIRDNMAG
Experiment: not given
Conditions: ratio of IC50, 1 mM ATP; cited from earlier work

| Compound | JAK2/JAK1 |
| --- | --- |
| N#CCC(C1CCN(c2cccc(Cl)n2)C1)n1cc(-c2ncnc3[nH]ccc23)cn1 (single isomer, unassigned) [Compound 3, 3-[1-(6-chloropyridin-2-yl)pyrrolidin-3-yl]-3-[4-(7H-pyrrolo[2,3-d]pyrimidin-4-yl)-1H-pyrazol-1-yl]propanenitrile] | >10 |
| C[C@@H](O)c1nc2cnc3ccsc3c2n1[C@H]1CC[C@H](CC#N)OC1 [Compound 1, ((2R,5S)-5-{2-[(1R)-1-hydroxyethyl]-1H-imidazo[4,5-d]thieno[3,2-b]pyridin-1-yl}tetrahydro-2H-pyran-2-yl)acetonitrile] | >10 |
| N#CCC(C1CCN(c2nc3cccnc3o2)C1)n1cc(-c2ncnc3[nH]ccc23)cn1 (centres unmarked) [Compound 4, 3-(1-[1,3]oxazolo[5,4-b]pyridin-2-ylpyrrolidin-3-yl)-3-[4-(7H-pyrrolo[2,3-d]pyrimidin-4-yl)-1H-pyrazol-1-yl]propanenitrile] | >10 |
| N#CCC(CN1CCN(C(=O)c2ccc(C#N)cc2F)CC1)n1cc(-c2ncnc3[nH]ccc23)cn1 (centres unmarked) [Compound 5] | >10 |
| N#CCC(CN1CCN(C(=O)c2ccc(C#N)cc2F)CC1)n1ccc(-c2ncnc3[nH]ccc23)c1 (centres unmarked) [Compound 6, 4-[(4-{3-cyano-2-[3-(7H-pyrrolo[2,3-d]pyrimidin-4-yl)-1H-pyrrol-1-yl]propyl}piperazin-1-yl)carbonyl]-3-fluorobenzonitrile] | >10 |
| N#CCC1(n2cc(-c3ncnc4[nH]ccc34)cn2)CN(C2CCN(C(=O)c3ccnc(C(F)(F)F)c3F)CC2)C1 [Compound 7, {1-{1-[3-Fluoro-2-(trifluoromethyl)isonicotinoyl]piperidin-4-yl}-3-[4-(7H-pyrrolo[2,3-d]pyrimidin-4-yl)-1H-pyrazol-1-yl]azetidin-3-yl}acetonitrile] | >10 |
| N#CCC1(n2cc(-c3ncnc4[nH]ccc34)cn2)CN(C2CCN(C(=O)Nc3ccc(F)cc3C(F)(F)F)CC2)C1 [Compound 8, 4-{3-(Cyanomethyl)-3-[4-(7H-pyrrolo[2,3-d]pyrimidin-4-yl)-1H-pyrazol-1-yl]azetidin-1-yl}-N-[4-fluoro-2-(trifluoromethyl)phenyl]piperidine-1-carboxamide] | >10 |
| N#CCC1(n2cc(-c3ncnc4[nH]ccc34)cn2)CN(C2CCN(C(=O)c3ccnc(C(F)(F)F)n3)CC2)C1 [Compound 9, [3-[4-(7H-pyrrolo[2,3-d]pyrimidin-4-yl)-1H-pyrazol-1-yl]-1-(1-{[2-(trifluoromethyl)pyrimidin-4-yl]carbonyl}piperidin-4-yl)azetidin-3-yl]acetonitrile] | >10 |
| N#CC[C@]1(n2cc(-c3ncnc4[nH]ccc34)cn2)C[C@H](N2CCN(C(=O)c3ccnc(C(F)(F)F)n3)CC2)C1 [Compound 10, [trans-1-[4-[7H-pyrrolo[2,3-d]pyrimidin-4-yl)-1H-pyrazol-1-yl]-3-(4-{[2-(trifluoromethyl)pyrimidin-4-yl]carbonyl}piperazin-1-yl)cyclobutyl]acetonitrile] | >10 |
| C[C@H](NC(=O)c1cc(F)c(N2CC(CC#N)(n3cc(-c4ncnc5[nH]ccc45)cn3)C2)cc1F)C(F)(F)F [Compound 16, 4-{3-(cyanomethyl)-3-[4-(7H-pyrrolo[2,3-d]pyrimidin-4-yl)-1H-pyrazol-1-yl]azetidin-1-yl}-2,5-difluoro-N-[(1S)-2,2,2-trifluoro-1-methylethyl]benzamide] | >10 |
| N#CCC1(n2cc(-c3ncnc4[nH]ccc34)cn2)CN([C@H]2CC[C@@H](Oc3cc(CCO)nc(C(F)(F)F)n3)CC2)C1 [Compound 18, {1-(cis-4-{[6-(2-hydroxyethyl)-2-(trifluoromethyl)pyrimidin-4-yl]oxy}cyclohexyl)-3-[4-(7H-pyrrolo[2,3-d]pyrimidin-4-yl)-1H-pyrazol-1-yl]azetidin-3-yl}acetonitrile] | >10 |
| CCNCc1cc(O[C@H]2CC[C@@H](N3CC(CC#N)(n4cc(-c5ncnc6[nH]ccc56)cn4)C3)CC2)nc(C(F)(F)F)c1 [Compound 19, {1-(cis-4-{[4-[(ethylamino)methyl]-6-(trifluoromethyl)pyridin-2-yl]oxy}cyclohexyl)-3-[4-(7H-pyrrolo[2,3-d]pyrimidin-4-yl)-1H-pyrazol-1-yl]azetidin-3-yl}acetonitrile] | >10 |
| CC(C)(O)c1cc(O[C@H]2CC[C@@H](N3CC(CC#N)(n4cc(-c5ncnc6[nH]ccc56)cn4)C3)CC2)nc(C(F)(F)F)c1 [Compound 20, {1-(cis-4-{[4-(1-hydroxy-1-methylethyl)-6-(trifluoromethyl)pyridin-2-yl]oxy}cyclohexyl)-3-[4-(7H-pyrrolo[2,3-d]pyrimidin-4-yl)-1H-pyrazol-1-yl]azetidin-3-yl}acetonitrile] | >10 |
| C[C@@H](CO)NCc1cc(OC2CCN([C@H]3C[C@](CC#N)(n4cc(-c5ncnc6[nH]ccc56)cn4)C3)CC2)nc(C(F)(F)F)c1 [Compound 23, {trans-3-(4-{[4-({[(1S)-2-hydroxy-1-methylethyl]amino}methyl)-6-(trifluoromethyl)pyridin-2-yl]oxy}piperidin-1-yl)-1-[4-(7H-pyrrolo[2,3-d]pyrimidin-4-yl)-1H-pyrazol-1-yl]cyclobutyl}acetonitrile] | >10 |
| C[C@@H](O)CNCc1cc(OC2CCN([C@H]3C[C@](CC#N)(n4cc(-c5ncnc6[nH]ccc56)cn4)C3)CC2)nc(C(F)(F)F)c1 [Compound 24, {trans-3-(4-{[4-({[(2R)-2-hydroxypropyl]amino}methyl)-6-(trifluoromethyl)pyridin-2-yl]oxy}piperidin-1-yl)-1-[4-(7H-pyrrolo[2,3-d]pyrimidin-4-yl)-1H-pyrazol-1-yl]cyclobutyl}acetonitrile] | >10 |
| C[C@H](O)CNCc1cc(OC2CCN([C@H]3C[C@](CC#N)(n4cc(-c5ncnc6[nH]ccc56)cn4)C3)CC2)nc(C(F)(F)F)c1 [Compound 25, {trans-3-(4-{[4-({[(2S)-2-hydroxypropyl]amino}methyl)-6-(trifluoromethyl)pyridin-2-yl]oxy}piperidin-1-yl)-1-[4-(7H-pyrrolo[2,3-d]pyrimidin-4-yl)-1H-pyrazol-1-yl]cyclobutyl}acetontrile] | >10 |
| N#CC[C@]1(n2cc(-c3ncnc4[nH]ccc34)cn2)C[C@H](N2CCC(Oc3cc(CCO)cc(C(F)(F)F)n3)CC2)C1 [Compound 26, {trans-3-(4-{[4-(2-hydroxyethyl)-6-(trifluoromethyl)pyridin-2-yl]oxy}piperidin-1-yl)-1-[4-(7H-pyrrolo[2,3-d]pyrimidin-4-yl)-1H-pyrazol-1-yl]cyclobutyl}acetonitrile] | >10 |
| N[C@H]1CC[C@H](Cc2nc(-c3ccc(F)cc3)c3cnc(NCCCc4ccccc4)nn23)CC1 [Example 14, trans-7-((4-Aminocyclohexyl)methyl)-5-(4-fluorophenyl)-N-(3-phenylpropyl)imidazo[5,1-f][1,2,4]triazin-2-amine] | >10 |

Molecular target: Tyro3 (Homo sapiens (Human), UniProt Q06418)
Sequence (Q06418 41-890): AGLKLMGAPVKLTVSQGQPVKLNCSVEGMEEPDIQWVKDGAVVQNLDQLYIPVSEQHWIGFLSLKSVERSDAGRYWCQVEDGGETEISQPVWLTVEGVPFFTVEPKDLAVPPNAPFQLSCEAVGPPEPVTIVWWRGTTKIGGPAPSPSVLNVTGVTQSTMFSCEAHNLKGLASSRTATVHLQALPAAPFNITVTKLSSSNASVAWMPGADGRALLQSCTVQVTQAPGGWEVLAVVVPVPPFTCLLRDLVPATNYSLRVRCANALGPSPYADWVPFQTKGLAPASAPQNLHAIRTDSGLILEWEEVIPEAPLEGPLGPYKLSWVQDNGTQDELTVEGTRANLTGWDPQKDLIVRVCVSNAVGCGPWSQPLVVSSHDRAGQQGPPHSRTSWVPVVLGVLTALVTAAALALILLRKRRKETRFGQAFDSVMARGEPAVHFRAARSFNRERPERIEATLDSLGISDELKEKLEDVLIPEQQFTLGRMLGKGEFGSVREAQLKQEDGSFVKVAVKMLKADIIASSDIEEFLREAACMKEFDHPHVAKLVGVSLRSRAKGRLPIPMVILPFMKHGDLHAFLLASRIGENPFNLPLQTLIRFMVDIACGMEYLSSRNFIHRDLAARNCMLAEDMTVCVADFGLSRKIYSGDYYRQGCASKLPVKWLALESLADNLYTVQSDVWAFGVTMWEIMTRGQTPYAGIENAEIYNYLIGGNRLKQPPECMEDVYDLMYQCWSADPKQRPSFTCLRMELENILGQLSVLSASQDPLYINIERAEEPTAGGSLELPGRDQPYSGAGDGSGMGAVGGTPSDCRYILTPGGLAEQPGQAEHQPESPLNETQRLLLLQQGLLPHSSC
Experiment: TAM Enzymatic Assay (HTRF), Tyro3
Format: biochemical
Conditions: 0.366 nM Tyro3, HTRF
Experimental: The kinase assay buffer contained 50 mM HEPES, pH7.5, 10 mM MgCl2, 1 mM EGTA, 0.01% NP-40 and 2 mM DTT. 0.1 ul test compounds dissolved in DMSO were transferred from compound plates to white 384-well assay plates (Greiner [sequence] plates). […] 4 ul enzyme solution (or assay buffer for the enzyme blank) was added to the appropriate wells in each plate, and then 4 ul/well substrate solution was added to initiate the reaction. The plate was protected from light and incubated at room temperature for 60 min. […] The plate was incubated for 1 h at room temperature, and HTRF (homogenous time resolved fluorescence) signal was measured on a PHERAstar FS plate reader (BMG labtech). Percentage of inhibition was calculated for each concentration and IC50 value was generated from curve fitting with GraphPad Prism software.

| Compound | IC50 |
| --- | --- |
| N[C@H]1CC[C@H](Cc2nc(-c3ccc(F)cc3)c3cnc(NCCCc4ccccc4)nn23)CC1 [Example 14, trans-7-((4-Aminocyclohexyl)methyl)-5-(4-fluorophenyl)-N-(3-phenylpropyl)imidazo[5,1-f][1,2,4]triazin-2-amine] | > 1000 nM |

Molecular target: c-Mer (Homo sapiens (Human), UniProt Q12866)
Sequence (Q12866 21-999): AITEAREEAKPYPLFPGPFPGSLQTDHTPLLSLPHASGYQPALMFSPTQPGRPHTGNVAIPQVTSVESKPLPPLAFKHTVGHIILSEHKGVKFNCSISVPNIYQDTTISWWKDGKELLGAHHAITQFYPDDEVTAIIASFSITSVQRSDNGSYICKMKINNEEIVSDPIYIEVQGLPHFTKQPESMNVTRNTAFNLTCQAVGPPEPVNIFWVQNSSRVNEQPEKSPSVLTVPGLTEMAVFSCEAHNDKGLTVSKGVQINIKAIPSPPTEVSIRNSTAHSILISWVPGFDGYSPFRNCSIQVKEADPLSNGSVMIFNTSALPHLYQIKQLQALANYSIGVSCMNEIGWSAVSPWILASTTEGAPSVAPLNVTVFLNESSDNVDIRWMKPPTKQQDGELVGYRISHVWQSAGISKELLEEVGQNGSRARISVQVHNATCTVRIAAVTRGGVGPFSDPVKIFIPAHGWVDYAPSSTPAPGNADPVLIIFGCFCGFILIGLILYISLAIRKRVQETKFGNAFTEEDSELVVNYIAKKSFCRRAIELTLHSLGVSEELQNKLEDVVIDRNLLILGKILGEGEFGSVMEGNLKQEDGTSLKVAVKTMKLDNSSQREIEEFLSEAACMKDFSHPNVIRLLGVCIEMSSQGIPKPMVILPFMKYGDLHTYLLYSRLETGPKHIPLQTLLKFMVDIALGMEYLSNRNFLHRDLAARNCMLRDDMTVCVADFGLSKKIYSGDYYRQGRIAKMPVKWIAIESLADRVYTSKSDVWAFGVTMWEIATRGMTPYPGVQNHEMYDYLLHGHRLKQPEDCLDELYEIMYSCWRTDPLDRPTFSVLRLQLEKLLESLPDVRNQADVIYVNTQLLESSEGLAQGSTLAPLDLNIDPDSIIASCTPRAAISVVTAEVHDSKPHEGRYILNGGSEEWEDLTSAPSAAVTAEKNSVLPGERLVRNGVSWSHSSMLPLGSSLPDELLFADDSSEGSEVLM
Experiment: TAM Enzymatic Assay (HTRF), c-Mer
Format: biochemical
Conditions: 0.0625 nM c-Mer

| Compound | IC50 |
| --- | --- |
| N[C@H]1CC[C@H](Cc2nc(-c3ccc(F)cc3)c3cnc(NCCCc4ccccc4)nn23)CC1 [Example 14, trans-7-((4-Aminocyclohexyl)methyl)-5-(4-fluorophenyl)-N-(3-phenylpropyl)imidazo[5,1-f][1,2,4]triazin-2-amine] | ≤ 100 nM |

From patent US10005788B2, “Bicyclic fused pyrimidine compounds as TAM inhibitors” (Incyte Corporation, priority 2015, dated 2018)
